#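 Grown in 96-well plates, cells were treated for 48 hours with each compound at five concentrations. Insufficient inhibition: endpoint recorded as highest concentration tested. GI50 = concentration required for 50% inhibition of growth. TGI marks complete inhibition of growth.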
# Experiments:
# Experiment in all cases: NCI-60 cell line screen, 48 h
# 786-0 renal = system: 786-0 renal
# A498 renal = system: A498 renal
# A549 NSCLC = system: A549 NSCLC
# ACHN renal = system: ACHN renal
# BT-549 breast = system: BT-549 breast
# CAKI-1 renal = system: CAKI-1 renal
# CCRF-CEM leukemia = system: CCRF-CEM leukemia
# COLO 205 colon = system: COLO 205 colon
# DU-145 prostate = system: DU-145 prostate
# EKVX NSCLC = system: EKVX NSCLC
# HCC-2998 colon = system: HCC-2998 colon
# HCT-116 colon = system: HCT-116 colon
# HCT-15 colon = system: HCT-15 colon
# HL-60(TB) leukemia = system: HL-60(TB) leukemia
# HOP-62 NSCLC = system: HOP-62 NSCLC
# HOP-92 NSCLC = system: HOP-92 NSCLC
# HS 578T breast = system: HS 578T breast
# HT29 colon = system: HT29 colon
# IGROV1 ovarian = system: IGROV1 ovarian
# K-562 leukemia = system: K-562 leukemia
# KM12 colon = system: KM12 colon
# LOX IMVI melanoma = system: LOX IMVI melanoma
# M14 melanoma = system: M14 melanoma
# MALME-3M melanoma = system: MALME-3M melanoma
# MDA-MB-231 breast = system: MDA-MB-231 breast
# MDA-MB-435 = system: MDA-MB-435
# MOLT-4 leukemia = system: MOLT-4 leukemia
# NCI-H226 lung = system: NCI-H226 lung
# NCI-H23 lung = system: NCI-H23 lung
# NCI-H460 lung = system: NCI-H460 lung
# NCI-H522 lung = system: NCI-H522 lung
# NCI/ADR-RES ovarian = system: NCI/ADR-RES ovarian
# OVCAR-3 ovarian = system: OVCAR-3 ovarian
# OVCAR-4 ovarian = system: OVCAR-4 ovarian
# OVCAR-5 ovarian = system: OVCAR-5 ovarian
# OVCAR-8 ovarian = system: OVCAR-8 ovarian
# PC-3 prostate = system: PC-3 prostate
# RPMI-8226 leukemia = system: RPMI-8226 leukemia
# RXF 393 renal = system: RXF 393 renal
# SF-268 CNS = system: SF-268 CNS
# SF-295 CNS = system: SF-295 CNS
# SF-539 CNS = system: SF-539 CNS
# SK-MEL-2 melanoma = system: SK-MEL-2 melanoma
# SK-MEL-28 melanoma = system: SK-MEL-28 melanoma
# SK-MEL-5 melanoma = system: SK-MEL-5 melanoma
# SK-OV-3 ovarian = system: SK-OV-3 ovarian
# SN12C renal = system: SN12C renal
# SNB-19 CNS = system: SNB-19 CNS
# SNB-75 CNS = system: SNB-75 CNS
# SR leukemia = system: SR leukemia
# SW-620 colon = system: SW-620 colon
# T-47D breast = system: T-47D breast
# TK-10 renal = system: TK-10 renal
# U251 CNS = system: U251 CNS
# UACC-257 melanoma = system: UACC-257 melanoma
# UACC-62 melanoma = system: UACC-62 melanoma
# UO-31 renal = system: UO-31 renal
compound,measurement,setting,value
O=C1/C=C/[C@@H](O)[C@@H]2C[C@@H](O)C[C@H]2/C=C/CCC[C@H](CCc2ccc(NC(=S)Nc3ccc4c(c3)C(=O)OC43c4ccc(O)cc4Oc4cc(O)ccc43)cc2)O1,GI50,786-0 renal,262 nM
same,TGI,786-0 renal,771 nM
same,GI50,A498 renal,141 nM
same,TGI,A498 renal,458 nM
same,GI50,A549 NSCLC,448 nM
same,TGI,A549 NSCLC,> 100000 nM
same,GI50,ACHN renal,803 nM
same,TGI,ACHN renal,> 100000 nM
same,GI50,BT-549 breast,451 nM
same,TGI,BT-549 breast,73700 nM
same,GI50,CAKI-1 renal,1650 nM
same,TGI,CAKI-1 renal,> 100000 nM
same,GI50,CCRF-CEM leukemia,426 nM
same,TGI,CCRF-CEM leukemia,> 100000 nM
same,GI50,COLO 205 colon,208 nM
same,TGI,COLO 205 colon,384 nM
same,GI50,DU-145 prostate,2810 nM
same,TGI,DU-145 prostate,> 100000 nM
same,GI50,EKVX NSCLC,409 nM
same,TGI,EKVX NSCLC,> 100000 nM
same,GI50,HCC-2998 colon,302 nM
same,GI50,HCT-116 colon,523 nM
same,TGI,HCT-116 colon,4950 nM
same,GI50,HCT-15 colon,889 nM
same,TGI,HCT-15 colon,> 100000 nM
same,GI50,HL-60(TB) leukemia,4510 nM
same,TGI,HL-60(TB) leukemia,> 100000 nM
same,GI50,HOP-62 NSCLC,518 nM
same,TGI,HOP-62 NSCLC,> 100000 nM
same,GI50,HOP-92 NSCLC,932 nM
same,TGI,HOP-92 NSCLC,> 27600 nM
same,GI50,HS 578T breast,305 nM
same,TGI,HS 578T breast,> 100000 nM
same,GI50,HT29 colon,365 nM
same,TGI,HT29 colon,3610 nM
same,GI50,IGROV1 ovarian,622 nM
same,TGI,IGROV1 ovarian,2690 nM
same,GI50,K-562 leukemia,1170 nM
same,TGI,K-562 leukemia,> 100000 nM
same,GI50,KM12 colon,322 nM
same,TGI,KM12 colon,971 nM
same,GI50,LOX IMVI melanoma,244 nM
same,GI50,M14 melanoma,360 nM
same,TGI,M14 melanoma,> 49200 nM
same,GI50,MALME-3M melanoma,2260 nM
same,TGI,MALME-3M melanoma,> 100000 nM
same,GI50,MDA-MB-231 breast,210 nM
same,TGI,MDA-MB-231 breast,402 nM
same,GI50,MDA-MB-435,377 nM
same,TGI,MDA-MB-435,> 100000 nM
same,GI50,MOLT-4 leukemia,432 nM
same,TGI,MOLT-4 leukemia,4070 nM
same,GI50,NCI-H226 lung,287 nM
same,TGI,NCI-H226 lung,783 nM
same,GI50,NCI-H23 lung,439 nM
same,TGI,NCI-H23 lung,> 74000 nM
same,GI50,NCI-H460 lung,2620 nM
same,TGI,NCI-H460 lung,> 100000 nM
same,GI50,NCI-H522 lung,1600 nM
same,TGI,NCI-H522 lung,5240 nM
same,GI50,NCI/ADR-RES ovarian,407 nM
same,TGI,NCI/ADR-RES ovarian,> 100000 nM
same,GI50,OVCAR-3 ovarian,317 nM
same,TGI,OVCAR-3 ovarian,862 nM
same,GI50,OVCAR-4 ovarian,333 nM
same,GI50,OVCAR-5 ovarian,698 nM
same,TGI,OVCAR-5 ovarian,> 100000 nM
same,GI50,OVCAR-8 ovarian,401 nM
same,TGI,OVCAR-8 ovarian,> 100000 nM
same,GI50,PC-3 prostate,516 nM
same,TGI,PC-3 prostate,> 100000 nM
same,GI50,RPMI-8226 leukemia,339 nM
same,TGI,RPMI-8226 leukemia,2390 nM
same,GI50,RXF 393 renal,266 nM
same,TGI,RXF 393 renal,736 nM
same,GI50,SF-268 CNS,405 nM
same,TGI,SF-268 CNS,> 100000 nM
same,GI50,SF-295 CNS,486 nM
same,TGI,SF-295 CNS,> 100000 nM
same,GI50,SF-539 CNS,724 nM
same,TGI,SF-539 CNS,> 100000 nM
same,GI50,SK-MEL-2 melanoma,456 nM
same,TGI,SK-MEL-2 melanoma,5220 nM
same,GI50,SK-MEL-28 melanoma,263 nM
same,TGI,SK-MEL-28 melanoma,815 nM
same,GI50,SK-MEL-5 melanoma,164 nM
same,TGI,SK-MEL-5 melanoma,311 nM
same,GI50,SK-OV-3 ovarian,578 nM
same,TGI,SK-OV-3 ovarian,> 100000 nM
same,GI50,SN12C renal,2170 nM
same,TGI,SN12C renal,> 100000 nM
same,GI50,SNB-19 CNS,590 nM
same,TGI,SNB-19 CNS,> 100000 nM
same,GI50,SNB-75 CNS,252 nM
same,TGI,SNB-75 CNS,> 100000 nM
same,GI50,SR leukemia,517 nM
same,TGI,SR leukemia,> 100000 nM
same,GI50,SW-620 colon,337 nM
same,GI50,T-47D breast,1390 nM
same,TGI,T-47D breast,76000 nM
same,GI50,TK-10 renal,608 nM
same,TGI,TK-10 renal,12600 nM
same,GI50,U251 CNS,470 nM
same,TGI,U251 CNS,> 100000 nM
same,GI50,UACC-257 melanoma,547 nM
same,TGI,UACC-257 melanoma,> 75500 nM
same,GI50,UACC-62 melanoma,397 nM
same,TGI,UACC-62 melanoma,30700 nM
same,GI50,UO-31 renal,335 nM
same,TGI,UO-31 renal,> 100000 nM

# Source: PubChem BioAssay (NCI)
